Measurements taken from publication PMC12738788, “Structural snapshots of Pseudomonas aeruginosa LptB2FG and LptB2FGC reveal insights into lipopolysaccharide recognition and transport” (Nature Communications, 2025).
Several values for one entry are separate records, joined by “and”; a condition that tells them apart may be missing. Equal entries are not always repeated.

Columns and labels:
P. aeruginosa LptB2FGC [1] = experiment: Native MS: CDL added to LptB2FG(C):Re-LPS complex (competition); type: binding, Pseudomonas aeruginosa; conditions: Re-LPS 1 uM + CDL 2.5 uM
Procedure: In particular, we chose 14:0 CDL to be consistent with the 14 carbon lipid tails of Re-LPS, and incubated this with the LptB2FG/LptB2FGC complex, we could observe ~ 50% of LptB2FGC bound to CDL at 2.5 μM concentration (Fig. 5b). Apparent KD calculation indicated a similar trend when comparing LptB2FG and LptB2FGC interaction with CDL to that of LPS (Supplementary Fig. S18). […] We set out to test whether CDL influences LPS binding to LptB2FGC. To this end, we added increasing concentrations of CDL (1.0 to 5 μM) to a solution containing LptB2FG(C):Re-LPS complex (Supplementary Fig. S19).
Purified LptB2FG(C) was buffer exchanged into MS Buffer (200 mM ammonium acetate + 0.04% (w/v) [G1]-OGD) using a centrifugal buffer exchange device (Micro Bio-Spin 6, Bio-Rad) as previously described. The freshly buffer-exchanged protein was kept on ice, with protein concentration measured as before. […] Data were analysed using the Xcalibur 3.0 (Thermo Scientific), NaViA[64], and UniDec (www.unidec.chem.ox.ac.uk)[65] software packages. […]
Peak intensities were extracted using UniDec, and the ratios of the intensity of the ligand bound peak versus the total intensity of all observed species were calculated. The apparent dissociation constant (KD) values for individual lipid-binding events to LptB2FG and LptB2FGC were calculated through a sequential lipid-binding model using a previously described Python script. […]

P. aeruginosa LptB2FG = experiment: Native MS lipid binding to LptB2FG; design: species or system Pseudomonas aeruginosa; conditions: for 1x lipid_Ratio / 2x lipid_Ratio / 3x lipid_Ratio / 4x lipid_Ratio / Apo_Ratio: 3 μM protein
Procedure: (§1) Purified LptB2FG(C) was buffer exchanged into MS Buffer (200 mM ammonium acetate + 0.04% (w/v) [G1]-OGD) using a centrifugal buffer exchange device (Micro Bio-Spin 6, Bio-Rad) as previously described. The freshly buffer-exchanged protein was kept on ice, with protein concentration measured as before. The protein samples were diluted as desired in 200 mM ammonium acetate buffer with detergent as necessary and loaded into a gold-coated capillary Clark borosilicate capillary (Harvard Apparatus) prepared in the laboratory. The experiments were performed using a Q Exactive UHMR Hybrid Quadrupole-Orbitrap mass spectrometer (Thermo Fisher Scientific). Typically, 2 μl of buffer-exchanged protein solution was electrosprayed in negative polarity from in-house prepared gold-coated borosilicate capillaries. The instrument parameters used for data collection were: capillary voltage 1.1 kV, S-lens RF 100%, quadrupole selection from 1000 to 20,000 m/z range, HCD collision energy 200–300 V, source fragmentation 0 V, in-source trapping 200–300 V in negative mode. The ion transfer optics was set as follows: injection flatapole − 5 V, inter-flatapole lens − 4 V, bent flatapole − 2 V, transfer multipole 0 V. The resolution of the instrument was 8750 at m/z = 200 (transient time of 64 ms), argon pressure in the HCD cell was maintained at approximately at 8 × 10^–10 mbar and source temperature was kept at 200 °C. The noise level was set at 3 rather than the default value of 4.64. Calibration of the instruments was performed using 10 mg/ml solution of caesium iodide in water. Where required, baseline subtraction was performed to achieve a better-quality mass spectrum. Data were analysed using the Xcalibur 3.0 (Thermo Scientific), NaViA[64], and UniDec (www.unidec.chem.ox.ac.uk)[65] software packages.
(§2) Lipid and nucleotide binding experiments were performed by diluting them in 200 mM ammonium acetate supplemented with 0.04% [G1]-OGD. Native MS experiments were performed at a total LptB2FG(C) protein concentration of 3 μM.
(§3) Peak intensities were extracted using UniDec, and the ratios of the intensity of the ligand bound peak versus the total intensity of all observed species were calculated. The apparent dissociation constant (KD) values for individual lipid-binding events to LptB2FG and LptB2FGC were calculated through a sequential lipid-binding model using a previously described Python script. When necessary, a Welch’s T-test was used to evaluate statistically significant differences and data were plotted using GraphPad Prism 8.0. Error bars in the plots indicate standard deviation, and all experiments were performed in triplicate (n = 3).

P. aeruginosa LptB2FGC [2] = experiment: Native MS lipid binding to LptB2FGC; design: species or system Pseudomonas aeruginosa; conditions: for 1x lipid_Ratio / 2x lipid_Ratio / 3x lipid_Ratio / 4x lipid_Ratio / Apo_Ratio: 3 μM protein
Procedure: as §1, §2, §3

[3] = target: P. aeruginosa LptB with a C-terminal 6 x His-tag (P. aeruginosa); experiment: non-reducing SDS-PAGE; SDS-PAGE gel of the purified complex, run under non-reducing conditions
[4] = target: P. aeruginosa LptB with a C-terminal 6 x His-tag (P. aeruginosa); experiment: cryo-EM structure; LptB2FG/LptB2FGC co-expressed, co-purified and delipidated, reconstituted in MSP1D1 nanodiscs with E. coli total extract lipid; 20 mM Tris-HCl pH 7.5, 100 mM NaCl; substrate-free; three LptB2FG and two LptB2FGC conformations from one sample
[5] = target: P. aeruginosa LptB with a C-terminal 6 x His-tag (P. aeruginosa); experiment: native MS; complex co-expressed and purified by the His tag on LptB (IMAC, SEC), exchanged into 200 mM ammonium acetate + 0.04% (w/v) [G1]-OGD; negative polarity
[6] = first lipid-binding event, sequential lipid-binding model, native MS, read-out: apparent dissociation constant KD(1)

CCCCCCCCCCCCCC(=O)OC[C@H](COP(=O)(O)OCC(O)COP(=O)(O)OC[C@@H](COC(=O)CCCCCCCCCCCCC)OC(=O)CCCCCCCCCCCCC)OC(=O)CCCCCCCCCCCCC (stereo partly shown) [CDL, 1’,3’-bis[1,2-dimyristoyl-sn-glycero-3-phospho]-glycerol]
1x CDL (P. aeruginosa LptB2FGC [1]): 0.1327 and 0.2003 and 0.1609
2x CDL (P. aeruginosa LptB2FGC [1]): 0
1x lipid_Ratio (P. aeruginosa LptB2FG; 0.25 μM lipid): 0.1443 and 0.1705 and 0.1602
2x lipid_Ratio (P. aeruginosa LptB2FG; 0.25 μM lipid): 0
3x lipid_Ratio (P. aeruginosa LptB2FG; 0.25 μM lipid): 0
4x lipid_Ratio (P. aeruginosa LptB2FG; 0.25 μM lipid): 0
Apo_Ratio (P. aeruginosa LptB2FG; 0.25 μM lipid): 0.8557 and 0.8295 and 0.8398
1x lipid_Ratio (P. aeruginosa LptB2FG; 0.5 μM lipid): 0.199 and 0.1911 and 0.2318
2x lipid_Ratio (P. aeruginosa LptB2FG; 0.5 μM lipid): 0
3x lipid_Ratio (P. aeruginosa LptB2FG; 0.5 μM lipid): 0
4x lipid_Ratio (P. aeruginosa LptB2FG; 0.5 μM lipid): 0
Apo_Ratio (P. aeruginosa LptB2FG; 0.5 μM lipid): 0.801 and 0.8089 and 0.7682
1x lipid_Ratio (P. aeruginosa LptB2FG; 1 μM lipid): 0.2261 and 0.2185 and 0.1754
3x lipid_Ratio (P. aeruginosa LptB2FG; 1 μM lipid): 0
4x lipid_Ratio (P. aeruginosa LptB2FG; 1 μM lipid): 0
Apo_Ratio (P. aeruginosa LptB2FG; 1 μM lipid): 0.7468 and 0.7118 and 0.7769
1x lipid_Ratio (P. aeruginosa LptB2FG; 1.25 μM lipid): 0.2786 and 0.2616 and 0.2584
2x lipid_Ratio (P. aeruginosa LptB2FG; 1.25 μM lipid): 0.04833 and 0.04258 and 0.08199
3x lipid_Ratio (P. aeruginosa LptB2FG; 1.25 μM lipid): 0
4x lipid_Ratio (P. aeruginosa LptB2FG; 1.25 μM lipid): 0
Apo_Ratio (P. aeruginosa LptB2FG; 1.25 μM lipid): 0.6731 and 0.6958 and 0.6596
1x lipid_Ratio (P. aeruginosa LptB2FG; 2.5 μM lipid): 0.3458 and 0.3529 and 0.3561
2x lipid_Ratio (P. aeruginosa LptB2FG; 2.5 μM lipid): 0.07878 and 0.07812 and 0.08017
3x lipid_Ratio (P. aeruginosa LptB2FG; 2.5 μM lipid): 0
4x lipid_Ratio (P. aeruginosa LptB2FG; 2.5 μM lipid): 0
Apo_Ratio (P. aeruginosa LptB2FG; 2.5 μM lipid): 0.5754 and 0.569 and 0.5638
1x lipid_Ratio (P. aeruginosa LptB2FG; 5 μM lipid): 0.4041 and 0.3985 and 0.4061
2x lipid_Ratio (P. aeruginosa LptB2FG; 5 μM lipid): 0.2783 and 0.2976 and 0.263
3x lipid_Ratio (P. aeruginosa LptB2FG; 5 μM lipid): 0.07217 and 0.104 and 0.096
4x lipid_Ratio (P. aeruginosa LptB2FG; 5 μM lipid): 0
Apo_Ratio (P. aeruginosa LptB2FG; 5 μM lipid): 0.2455 and 0.1999 and 0.2349
Kd (P. aeruginosa LptB2FG; [6]): 4.8 ± 0.14 µM
1x lipid_Ratio (P. aeruginosa LptB2FGC [2]; 0.25 μM lipid): 0.1955 and 0.2067 and 0.2427
2x lipid_Ratio (P. aeruginosa LptB2FGC [2]; 0.25 μM lipid): 0
3x lipid_Ratio (P. aeruginosa LptB2FGC [2]; 0.25 μM lipid): 0
4x lipid_Ratio (P. aeruginosa LptB2FGC [2]; 0.25 μM lipid): 0
Apo_Ratio (P. aeruginosa LptB2FGC [2]; 0.25 μM lipid): 0.8045 and 0.7933 and 0.7573
1x lipid_Ratio (P. aeruginosa LptB2FGC [2]; 0.5 μM lipid): 0.236 and 0.2635 and 0.2763
2x lipid_Ratio (P. aeruginosa LptB2FGC [2]; 0.5 μM lipid): 0
3x lipid_Ratio (P. aeruginosa LptB2FGC [2]; 0.5 μM lipid): 0
4x lipid_Ratio (P. aeruginosa LptB2FGC [2]; 0.5 μM lipid): 0
Apo_Ratio (P. aeruginosa LptB2FGC [2]; 0.5 μM lipid): 0.764 and 0.7365 and 0.7237
1x lipid_Ratio (P. aeruginosa LptB2FGC [2]; 1 μM lipid): 0.2764 and 0.2872 and 0.3074
2x lipid_Ratio (P. aeruginosa LptB2FGC [2]; 1 μM lipid): 0.0846 and 0.07455 and 0.1186
3x lipid_Ratio (P. aeruginosa LptB2FGC [2]; 1 μM lipid): 0
4x lipid_Ratio (P. aeruginosa LptB2FGC [2]; 1 μM lipid): 0
Apo_Ratio (P. aeruginosa LptB2FGC [2]; 1 μM lipid): 0.639 and 0.6382 and 0.574
1x lipid_Ratio (P. aeruginosa LptB2FGC [2]; 1.25 μM lipid): 0.3498 and 0.3261 and 0.3766
3x lipid_Ratio (P. aeruginosa LptB2FGC [2]; 1.25 μM lipid): 0
4x lipid_Ratio (P. aeruginosa LptB2FGC [2]; 1.25 μM lipid): 0
Apo_Ratio (P. aeruginosa LptB2FGC [2]; 1.25 μM lipid): 0.545 and 0.5422 and 0.5586
1x lipid_Ratio (P. aeruginosa LptB2FGC [2]; 2.5 μM lipid): 0.3774 and 0.3613 and 0.3792
2x lipid_Ratio (P. aeruginosa LptB2FGC [2]; 2.5 μM lipid): 0.1928 and 0.1837 and 0.1898
3x lipid_Ratio (P. aeruginosa LptB2FGC [2]; 2.5 μM lipid): 0.07276 and 0.06329 and 0.08767
4x lipid_Ratio (P. aeruginosa LptB2FGC [2]; 2.5 μM lipid): 0
Apo_Ratio (P. aeruginosa LptB2FGC [2]; 2.5 μM lipid): 0.3571 and 0.3916 and 0.3434
1x lipid_Ratio (P. aeruginosa LptB2FGC [2]; 5 μM lipid): 0.2708 and 0.2286 and 0.261
2x lipid_Ratio (P. aeruginosa LptB2FGC [2]; 5 μM lipid): 0.3089 and 0.3049 and 0.3123
3x lipid_Ratio (P. aeruginosa LptB2FGC [2]; 5 μM lipid): 0.1993 and 0.2344 and 0.2124
4x lipid_Ratio (P. aeruginosa LptB2FGC [2]; 5 μM lipid): 0.08447 and 0.1259 and 0.09283
Apo_Ratio (P. aeruginosa LptB2FGC [2]; 5 μM lipid): 0.1365 and 0.1062 and 0.1214
Kd (P. aeruginosa LptB2FGC [2]; [6]): 3.07 ± 0.09 µM

CCCCCCCCCCC[C@@H](O)CC(=O)N[C@H]1[C@H](OC[C@H]2O[C@H](OP(=O)(O)O)[C@H](NC(=O)C[C@H](O)CCCCCCCCCCC)[C@@H](OC(=O)C[C@H](O)CCCCCCCCCCC)[C@@H]2O)O[C@H](CO)[C@@H](OP(=O)(O)O)[C@@H]1OC(=O)C[C@H](O)CCCCCCCCCCC [lipid IVA]
apo fraction of LptB2FG (P. aeruginosa LptB2FG; pre-delipidation, ClearColi-expressed complex, lipid IVA sole LPS-related species): ~ 60%
lipid IVA occupancy of LptB2FGC (P. aeruginosa LptB2FGC [2]; pre-delipidation, ClearColi-expressed complex, with 2× adducts): ~ 80%

P. aeruginosa LptB with a C-terminal 6 x His-tag (natural protein)
stoichiometry N [3]: 2
stoichiometry N [4]: 2
stoichiometry N [5]: 2
